# Measurements from ChEMBL document CHEMBL1124529, “Sodium channel binding and anticonvulsant activities for the enantiomers of a bicyclic 2,4-oxazolidinedione and monocyclic models” (J Med Chem, 1989).
# Tests used:
# [1] = Anticonvulsant activity of the compound,0.5 hr after administration in mice subjected to rotarod toxicity test; assay type: organism-based; conditions: mouse, in vivo
# Mus musculus [2] = assay: Anticonvulsant activity of the compound, 0.5 hr after administration of compound in mice subjected to subcutaneous metrazole challenge (85 mg/kg); assay type: functional; conditions: sc
# [3] = molecular target: T1, Sodium channel alpha subunits; brain (Types I, II, III) (Rattus norvegicus) (UniProt P04775+P04774+P08104); assay: Displacement of [3H]BTX-B from rat cerebral cortex voltage-gated sodium channel, 0.25 hr after 160 uM; assay type: tissue-based
# T1 sequence (P04775 whole entry, looked up, other chains not shown): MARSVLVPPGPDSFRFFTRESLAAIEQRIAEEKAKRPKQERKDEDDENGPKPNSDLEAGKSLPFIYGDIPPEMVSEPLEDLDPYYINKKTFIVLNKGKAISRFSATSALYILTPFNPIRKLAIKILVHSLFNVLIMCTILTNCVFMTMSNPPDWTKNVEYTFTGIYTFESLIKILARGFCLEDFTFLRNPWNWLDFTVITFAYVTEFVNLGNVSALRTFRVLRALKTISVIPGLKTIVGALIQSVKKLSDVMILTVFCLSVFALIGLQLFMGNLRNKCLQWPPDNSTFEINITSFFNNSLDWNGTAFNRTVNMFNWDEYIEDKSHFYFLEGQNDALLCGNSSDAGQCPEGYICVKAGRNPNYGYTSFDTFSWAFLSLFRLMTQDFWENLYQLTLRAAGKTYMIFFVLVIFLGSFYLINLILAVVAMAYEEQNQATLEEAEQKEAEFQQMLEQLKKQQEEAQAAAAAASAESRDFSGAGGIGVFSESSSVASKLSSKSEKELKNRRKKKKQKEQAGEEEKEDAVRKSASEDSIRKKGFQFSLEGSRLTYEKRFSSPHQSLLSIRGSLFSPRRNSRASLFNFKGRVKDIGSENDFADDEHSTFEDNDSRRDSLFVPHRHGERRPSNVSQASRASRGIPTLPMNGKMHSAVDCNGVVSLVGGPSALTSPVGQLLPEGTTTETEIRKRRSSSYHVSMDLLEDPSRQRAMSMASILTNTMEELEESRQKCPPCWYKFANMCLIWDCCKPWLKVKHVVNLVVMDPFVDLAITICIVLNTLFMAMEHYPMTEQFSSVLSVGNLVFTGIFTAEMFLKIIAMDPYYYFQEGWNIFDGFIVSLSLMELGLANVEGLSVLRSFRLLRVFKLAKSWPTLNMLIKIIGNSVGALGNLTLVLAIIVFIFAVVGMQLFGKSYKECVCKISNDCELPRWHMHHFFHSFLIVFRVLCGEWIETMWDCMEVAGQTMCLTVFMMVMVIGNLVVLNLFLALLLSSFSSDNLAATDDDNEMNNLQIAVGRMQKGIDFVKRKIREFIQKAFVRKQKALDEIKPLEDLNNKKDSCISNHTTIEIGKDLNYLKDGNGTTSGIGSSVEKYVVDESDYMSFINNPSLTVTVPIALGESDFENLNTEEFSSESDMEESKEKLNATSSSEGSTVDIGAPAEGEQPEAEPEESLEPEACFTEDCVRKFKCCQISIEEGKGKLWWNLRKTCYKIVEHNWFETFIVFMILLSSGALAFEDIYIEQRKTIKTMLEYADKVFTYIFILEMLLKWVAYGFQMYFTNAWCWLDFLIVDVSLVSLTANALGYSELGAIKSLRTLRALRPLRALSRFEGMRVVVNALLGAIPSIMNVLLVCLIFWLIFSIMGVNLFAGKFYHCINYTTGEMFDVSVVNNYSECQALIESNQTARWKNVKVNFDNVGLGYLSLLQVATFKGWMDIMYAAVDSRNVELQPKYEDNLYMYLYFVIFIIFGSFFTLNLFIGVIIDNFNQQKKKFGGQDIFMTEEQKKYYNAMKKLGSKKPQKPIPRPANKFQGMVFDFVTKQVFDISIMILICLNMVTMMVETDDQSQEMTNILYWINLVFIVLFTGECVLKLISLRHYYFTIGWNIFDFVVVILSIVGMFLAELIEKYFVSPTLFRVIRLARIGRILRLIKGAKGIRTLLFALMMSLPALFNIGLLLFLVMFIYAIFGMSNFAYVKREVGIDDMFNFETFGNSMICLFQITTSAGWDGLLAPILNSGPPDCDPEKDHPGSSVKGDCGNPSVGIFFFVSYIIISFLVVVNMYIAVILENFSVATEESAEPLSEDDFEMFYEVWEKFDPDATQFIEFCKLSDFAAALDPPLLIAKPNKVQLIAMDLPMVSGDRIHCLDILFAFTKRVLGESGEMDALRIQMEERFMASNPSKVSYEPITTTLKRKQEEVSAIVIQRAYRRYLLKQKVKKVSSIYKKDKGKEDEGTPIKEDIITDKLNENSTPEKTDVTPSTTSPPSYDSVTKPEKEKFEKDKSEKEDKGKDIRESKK
# T1 sequence (P08104 whole entry, looked up, other chains not shown): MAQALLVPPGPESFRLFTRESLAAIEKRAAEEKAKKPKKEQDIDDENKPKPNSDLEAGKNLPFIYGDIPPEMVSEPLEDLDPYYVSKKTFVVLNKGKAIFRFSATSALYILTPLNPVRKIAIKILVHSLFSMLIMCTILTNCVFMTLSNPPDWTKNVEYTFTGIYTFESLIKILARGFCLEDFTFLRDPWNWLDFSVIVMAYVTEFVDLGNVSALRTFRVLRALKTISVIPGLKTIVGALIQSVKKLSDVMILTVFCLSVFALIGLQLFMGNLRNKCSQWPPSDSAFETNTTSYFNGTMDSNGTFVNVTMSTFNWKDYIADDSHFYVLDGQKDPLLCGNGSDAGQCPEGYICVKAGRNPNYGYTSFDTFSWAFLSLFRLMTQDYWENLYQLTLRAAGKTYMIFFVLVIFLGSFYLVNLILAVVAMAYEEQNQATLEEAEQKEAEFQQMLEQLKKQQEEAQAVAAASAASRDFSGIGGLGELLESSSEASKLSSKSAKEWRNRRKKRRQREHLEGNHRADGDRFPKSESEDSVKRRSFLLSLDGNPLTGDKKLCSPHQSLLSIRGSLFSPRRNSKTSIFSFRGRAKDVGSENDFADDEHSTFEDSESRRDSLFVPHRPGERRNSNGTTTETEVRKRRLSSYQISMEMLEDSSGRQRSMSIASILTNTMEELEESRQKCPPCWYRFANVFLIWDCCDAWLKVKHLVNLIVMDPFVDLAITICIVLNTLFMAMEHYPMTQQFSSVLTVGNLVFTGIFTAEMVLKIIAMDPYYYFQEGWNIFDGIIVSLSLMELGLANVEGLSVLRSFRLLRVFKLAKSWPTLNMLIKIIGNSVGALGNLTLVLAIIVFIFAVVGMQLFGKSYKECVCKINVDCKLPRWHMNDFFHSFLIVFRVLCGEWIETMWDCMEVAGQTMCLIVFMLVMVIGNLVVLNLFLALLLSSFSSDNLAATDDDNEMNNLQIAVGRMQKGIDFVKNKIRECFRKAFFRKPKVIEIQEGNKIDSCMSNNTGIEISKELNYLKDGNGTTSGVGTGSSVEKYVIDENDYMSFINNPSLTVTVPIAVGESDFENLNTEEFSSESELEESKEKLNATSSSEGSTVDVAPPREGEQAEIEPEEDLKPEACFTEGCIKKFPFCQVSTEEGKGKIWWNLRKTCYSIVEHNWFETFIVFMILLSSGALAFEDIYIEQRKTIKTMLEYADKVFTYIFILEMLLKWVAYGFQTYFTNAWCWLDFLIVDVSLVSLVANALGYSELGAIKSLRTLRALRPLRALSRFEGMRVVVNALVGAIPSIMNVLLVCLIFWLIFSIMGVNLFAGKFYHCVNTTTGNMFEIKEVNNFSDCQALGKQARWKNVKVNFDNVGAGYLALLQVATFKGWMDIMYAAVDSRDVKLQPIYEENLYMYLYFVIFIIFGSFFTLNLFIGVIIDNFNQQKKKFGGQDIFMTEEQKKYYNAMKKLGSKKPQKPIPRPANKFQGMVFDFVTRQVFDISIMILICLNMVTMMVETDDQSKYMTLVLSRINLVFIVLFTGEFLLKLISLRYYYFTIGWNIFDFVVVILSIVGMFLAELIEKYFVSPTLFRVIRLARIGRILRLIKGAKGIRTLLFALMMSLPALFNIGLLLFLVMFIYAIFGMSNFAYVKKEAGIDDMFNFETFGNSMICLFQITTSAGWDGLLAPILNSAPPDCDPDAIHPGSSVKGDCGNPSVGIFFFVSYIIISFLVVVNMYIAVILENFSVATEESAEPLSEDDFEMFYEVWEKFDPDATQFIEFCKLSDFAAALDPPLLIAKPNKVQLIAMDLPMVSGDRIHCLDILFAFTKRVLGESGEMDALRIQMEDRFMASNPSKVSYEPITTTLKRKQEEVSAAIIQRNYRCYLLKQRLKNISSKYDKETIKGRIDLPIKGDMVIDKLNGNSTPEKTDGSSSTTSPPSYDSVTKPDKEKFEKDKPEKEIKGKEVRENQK
# Mus musculus [4] = assay: Anticonvulsant activity of the compound, 0.5 hr after administration in maximal electroshock mice model; assay type: functional
# [5] = molecular target: T1, Sodium channel alpha subunits; brain (Types I, II, III) (Rattus norvegicus); assay: Displacement of [3H]BTX-B from rat cerebral cortex voltage-gated sodium channel, 0.5 hr after 500 uM; assay type: tissue-based
# [6] = molecular target: T1, Sodium channel alpha subunits; brain (Types I, II, III) (Rattus norvegicus); assay: Displacement of [3H]BTX-B from rat cerebral cortex voltage-gated sodium channel, 0.5 hr after 190 uM; assay type: tissue-based
# Mus musculus [7] = species on record: Mus musculus; assay: Anticonvulsant activity when mice were subjected to maximal electroshock; assay type: functional
# [8] = Anticonvulsant activity of the compound,0.25 h after administration in mice subjected to rotarod toxicity test; assay type: organism-based; conditions: mouse, in vivo
SMILES,inhibition [3],inhibition [5],inhibition [6],TD50 at 0.5 h [1],ED50 (Mus musculus [2]),ED50 (Mus musculus [4]),ED50 (Mus musculus [7]),TD50 at 0.25 h [8]
O=C1OC2(c3ccccc3)CCCCCN1C2=O (racemic),50%,–,–,147 mg/kg,45 mg/kg,66 mg/kg,–,–
CC[C@]1(c2ccccc2)OC(=O)N(C)C1=O,–,49%,–,354 mg/kg,69 mg/kg,122 mg/kg,–,–
CC(=O)N[C@H](C(=O)NCc1ccccc1)c1ccccc1,–,–,–,–,–,–,> 300 mg/kg,–
CCC1(c2ccccc2)OC(=O)N(C)C1=O (racemic),–,50%,–,–,–,124 mg/kg,–,–
CC[C@@]1(c2ccccc2)OC(=O)N(C)C1=O,–,45%,–,395 mg/kg,64 mg/kg,188 mg/kg,–,–
CC(=O)N[C@@H](C(=O)NCc1ccccc1)c1ccccc1,–,–,–,–,–,–,26 mg/kg,–
CC[C@@]1(c2ccccc2)OC(=O)NC1=O,–,36%,–,155 mg/kg,42 mg/kg,141 mg/kg,–,–

# More lines, main results first:
inhibition [3],inhibition [5],inhibition [6],SMILES,TD50 at 0.5 h [1],ED50 (Mus musculus [2]),ED50 (Mus musculus [4]),ED50 (Mus musculus [7]),TD50 at 0.25 h [8]
–,–,50%,O=C1O[C@@]2(c3ccccc3)CCCCCN1C2=O,84 mg/kg,50 mg/kg,45 mg/kg,–,–
–,46%,–,CC[C@]1(c2ccccc2)OC(=O)NC1=O,172 mg/kg,108 mg/kg,91 mg/kg,–,–
–,44%,–,CCC1(c2ccccc2)OC(=O)NC1=O (racemic),–,–,–,–,–
–,–,50%,O=C1O[C@]2(c3ccccc3)CCCCCN1C2=O,–,< 400 mg/kg,82 mg/kg,–,334 mg/kg
